Molecular target: T1, hSPSB1 (Homo sapiens, UniProt Q96BD6)
T1 construct: hexahistidine (N, cleaved yes); made in house; host or cells: E. coli BL21(DE3)-R3-pRARE2
T1 sequence (Q96BD6 24-233): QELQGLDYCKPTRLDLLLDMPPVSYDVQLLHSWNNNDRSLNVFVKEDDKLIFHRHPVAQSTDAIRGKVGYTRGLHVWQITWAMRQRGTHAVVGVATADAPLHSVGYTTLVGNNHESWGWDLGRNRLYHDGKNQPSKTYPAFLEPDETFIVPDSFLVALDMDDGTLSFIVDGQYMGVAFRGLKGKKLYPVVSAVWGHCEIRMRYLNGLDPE
Experiment: ITC of peptides with hSPSB1
Settings: 20 °C, 50 mM Hepes pH 7.4, 150 mM NaCl, 1 mM DTT, 100 μM peptide into 10 μM protein, ± error of curve fit, single binding site model
Procedure: Human SPSB constructs lacking the SOCS box region [hSPSB1(24–233), SWISS-PROT accession number Q96BD6; hSPSB2(26–219), Q99619 and hSPSB4(28–233), Q96A44] were cloned into pNIC28-Bsa4 by ligation-independent cloning. Constructs were transformed into BL21(DE3)-R3-pRARE2 and expressed overnight at 18 °C with 0.5 mM IPTG added at OD600 = 0.5–0.8. hSPSB proteins were purified using Ni-Sepharose (GE Healthcare, UK), eluted by imidazole and subsequently cleaved from the N-terminal hexahistidine tag by addition of tobacco etch virus protease (although hSPSB2 was resistant to cleavage). Further purification was achieved by size-exclusion chromatography and finally anion-exchange chromatography in the case of hSPSB1.
ITC measurements on mSPSB proteins were performed at 22 °C using a MicroCalorimetry System (MicroCal, Northhampton, MA). mSPSB1, mSPSB2, and mSPSB4 were prepared by dialyzing against 20 mM Tris, 150 mM sodium chloride, and 2.5 mM calcium chloride at pH 8.0. […] Dilution enthalpies were determined separately by titrating peptide into buffer and used to correct the enthalpies of the binding of protein and peptide. Data were analyzed using a single binding site model implemented in the Origin software package provided with the instrument.

Kd: 40 ± 5 nM
Structure (SMILES): CC[C@H](C)[C@H](NC(=O)[C@H](Cc1ccc(O)cc1)NC(=O)[C@H](Cc1ccccc1)NC(=O)[C@H](CCC(=O)O)NC(=O)[C@H](CCCNC(=N)N)NC(=O)[C@H](CCCCN)NC(=O)[C@H](CCCNC(=N)N)NC(=O)[C@H](CCC(=O)O)NC(=O)[C@@H](NC(=O)[C@H](CC(=O)O)NC(=O)[C@H](CCC(=O)O)NC(=O)[C@@H](NC(=O)[C@@H](NC(=O)[C@H](CC(N)=O)NC(=O)[C@H](CC(N)=O)NC(=O)[C@H](CC(N)=O)NC(=O)[C@H](CC(N)=O)NC(=O)[C@H](CC(N)=O)NC(=O)[C@@H](NC(=O)[C@@H](N)CC(=O)O)[C@@H](C)CC)[C@@H](C)CC)C(C)C)C(C)C)C(=O)O [VASA]
